The record followed here is patent publication US6335339B1, “Triazine antiviral compounds” (Scriptgen Pharmaceuticals, Inc., priority 1998, dated 2002).

“Also recorded” adds a separate entry of the source.

The term CC50 denotes the concentration at which the toxic effect on the cells reaches its halfway point.

Data set [1] has as its system 2.2.15 cells. Nature of the data set: neutral red dye uptake cytotoxicity. The format is cell-based. The settings on record: 9 days treatment, read-out: 50% Cell Death CC50. As for the experimental part: Further, the antiviral effect of any compound must be measured against its toxicity. Cytotoxicity is measured by the neutral red uptake method using the same cells used for antiviral activity.
2b. Compounds were prepared for toxicity treatment as follows: For each compound, a total of 4 concentrations were examined. This required 9 sets of 4 sterile, 1.1 ml minitubes (36 tubes per compound). Into the first tube of each set, sufficient compound was aliquoted to make up 465 μl of the highest test concentration. The other tubes were left empty. The tubes were covered with the rack lids, and stored at −20° C. or at an appropriate temperature. Tubes for the last day of treatment for toxicity testing contain the same amount of compound as used the previous days (not 3xas for the antiviral assays).
3b. The cytotoxicity of test compounds was analyzed in a 3.3-fold dilution series as follows. […] (155 μl×3) of RP2 were added to the first tube (containing the aliquot of compound) and 310 μL (155 μl×2) RP2 to each of the 3 remaining tubes. 150 μl of test compound-containing medium were serially transferred from the first tube to the other 3 tubes.
5. A single plate was used for the toxicity treatments for each test compound (up to 7 compounds per plates since the top row were reserved for untreated cells on every toxicity plate). To initiate the treatments, the culture medium was removed, and 100 μl of each dilution of every compound were added to each of 3 wells using a configuration similar to that shown above for the antiviral treatments. The untreated cells received 100 μl RP2 per well. Treatment was repeated daily for 9 days.
The antiviral effect of any compound was evaluated relative to its toxicity. Cells were seeded and treated following the guidelines above, after which a neutral red dye uptake assay was performed to assess toxicity as described below. Other assays of cytotoxicity (e.g., MTT) can be substituted for the procedure described below. Note that this procedure assesses toxicity under culture and treatment conditions which are identical to those used for the antiviral analyses, thereby permitting a determination as to whether the reduction in virus production due to a specific antiviral effect or due to a cytotoxic effect on the host cell. Since the cultures, by necessity, are at confluence, the cytotoxic effects of the test compounds will probably be reduced relative to the cytotoxic effects that would be expected for actively dividing cells.
1. Cultures were treated with test compounds on the designated toxicity plates as described above.
2. The culture medium was carefully removed 24 hours following the 9th day of treatment. The monolayer was fully removed in the top left three wells (row A, col. 1-3). These wells were used as “blanks” for the plate reader.
3. 100 μl DPBS (containing 0.01% neutral red dye) were added to each well, including the empty wells, and Incubated in the tissue culture incubator for 30 minutes.
4. The dye was removed carefully and gently, using a multichannel pipetman since the monolayers can become fragile after incubation with neutral red dye. 200 μl DPBS were added to all the wells taking care not to displace the monolayers. The DPBS was removed and 100 μl 50% EtOH/1% glacial acetic acid (in H2O) were added to each well. The plates were mixed for 15 minutes on an orbital platform shaker (120-150 RPM) to allow for full extraction of the dye from the cells.
5. Optical absorbance at 510 nm was read in an ELISA type plate reader, using the 3 empty wells to set the background. An average absorbance value was calculated for the 9 untreated cultures on a plate, and the absorbance of dye for the treated cultures on the same plate was expressed as a percentage of that value. This procedure was repeated for each individual plate. […]

The test system of data set [2] is εRNA. Nature of the data set: RNase protection of end-labeled εRNA (B. Cereus RNase). The format is binding, Hepatitis B virus. The note with it: compound 0 to 200 μM, 25° C., 30 minutes. As for the experimental part: RNase protection was assessed by incubating an end-labeled RNA with the amount of RNase needed to yield a ladder representing single cut events at each possible cleavage site in the RNA structure (based upon a gel electrophoresis analysis). The presence of a ligand bound to the RNA renders the binding site inaccessible to the RNases and therefore, the binding site will be shown by the disappearance or weakening of specific bands in the digestion pattern (FIGS. 258A and 258B).
Reaction mixtures (10 μl) containing 50 mM Tris-HCl, pH 7.5, 50 mM KCl, 0.5 mg/ml rRNA (as a carrier), 0.5 pmol of 3′-end ^32P-labeled εRNA, 0.05 units of B. Cereus RNase, and compound 5 at concentrations between 0 and 200 μM were incubated at 25° C. for 30 minutes. The reaction products were resolved by gel electrophoresis in polyacrylamide gels. B. Cereus nuclease is a single strand specific RNase. The results are shown in FIG. 258A, wherein the sections of the ladder of digestion products corresponding to cleavage events occurring in the bulge and loop sections of the εRNA structure. […] Conversely, the loop and other regions of the structure where not affected.

The subject of data set [3] is RNA target containing only the bulge region of εRNA. Put plainly: melting temperature of bulge RNA (OD 260 nm). The format is binding, Hepatitis B virus. The settings on record: 2 μM RNA plus 10 μM compound; RNA without drug 65° C. As to the method: The melting temperature of the RNA was determined by monitoring the change in optical density at 260 nm with increasing temperature.
Further, a smaller RNA target containing only the bulge region of εRNA was prepared, and the melting temperature (tm) of this RNA structure was determined by monitoring the change in optical density (OD) at 260 nm while increasing the temperature. A 1 ml aliquot of reaction mixture contained 50 mM NaCl, 10 mM sodium cacodylate, pH 7.0, 10% DMSO, and 2 μM bulge RNA.

Consider `CCCCN(CCCC)c1nc(NN=Cc2ccc([N+](=O)[O-])cc2)nc(Nc2ccc([N+](=O)[O-])cc2)n1` [Compound 5], for which the CC50 in data set [1] is 307 µM. Besides, the “protection of εRNA from RNase cleavage” value in data set [2] is reported as “protects specific positions of RNA from digestion with RNases; also recorded: decrease in cleavage at specific positions of the bulge”.
For the compound `Cc1[nH]c2ccccc2c1C=NNc1nc(Nc2ccccc2)nc(Nc2ccc([N+](=O)[O-])cc2)n1` [Compound 6], the CC50 in data set [1] was 29 µM. The “melting temperature (tm) of bulge RNA” value in data set [3] came out at 83 °C.
